Test results taken from ChEMBL document CHEMBL4715709, “Synthesis and evaluation of anticonvulsant properties of new N-Mannich bases derived from 3-(1-phenylethyl)- and 3-benzyl-pyrrolidine-2,5-dione” (Bioorg Med Chem Lett, 2016).
Active and inactive are the calls of the source. The calls are words filed in the database; no cut-off is given here.

How the values were obtained:
[1] = system: Mus musculus; assay: Anticonvulsant activity in mouse assessed as protection against tonic-clonic seizures at 300 mg/kg, ip measured after 0.5 hrs by maximal electroshock seizure test; format: functional, organism-based
[2] = system: Mus musculus; assay: Anticonvulsant activity in mouse assessed as protection against tonic-clonic seizures at 300 mg/kg, ip measured after 4 hrs by maximal electroshock seizure test; format: functional, organism-based
[3] = system: Mus musculus; assay: Anticonvulsant activity in mouse assessed as protection against ScPTZ-induced epilepsy at 300 mg/kg, ip measured after 0.5 hrs by subcutaneous pentylenetetrazole test; format: functional, organism-based
[4] = system: Mus musculus; assay: Anticonvulsant activity in mouse assessed as protection against ScPTZ-induced epilepsy at 300 mg/kg, ip measured after 4 hrs by subcutaneous pentylenetetrazole test; format: functional, organism-based
[5] = Neurotoxicity in mouse assessed as induction of motor impairment at 300 mg/kg, ip measured after 0.5 hrs by rotarod test; format: toxicity, organism-based; conditions: in vivo
[6] = Neurotoxicity in mouse assessed as induction of motor impairment at 300 mg/kg, ip measured after 4 hrs by rotarod test; format: toxicity, organism-based; conditions: in vivo

CC(c1ccccc1)C1CC(=O)N(CN2CCN(c3ccc(Cl)c(Cl)c3)CC2)C1=O (centres undefined)
Activity [1]: inactive
Activity [2]: inactive
Activity [3]: inactive
Activity [4]: inactive
Activity [5]: Non-Toxic
Activity [6]: Non-Toxic

O=C1CC(Cc2ccccc2)C(=O)N1CN1CCN(c2cccc(Cl)c2Cl)CC1 (centres undefined)
Activity [1]: inactive
Activity [2]: inactive
Activity [3]: inactive
Activity [4]: inactive
Activity [5]: Non-Toxic
Activity [6]: Non-Toxic

O=C1CC(Cc2ccccc2)C(=O)N1CN1CCN(C2CCCCC2)CC1 (centres undefined)
Activity [1]: inactive
Activity [2]: inactive
Activity [3]: inactive
Activity [4]: inactive
Activity [5]: Non-Toxic
Activity [6]: Non-Toxic

CC(c1ccccc1)C1CC(=O)N(CN2CCN(c3ccccc3)CC2)C1=O (centres undefined)
Activity [1]: inactive
Activity [2]: inactive
Activity [3]: inactive
Activity [4]: inactive
Activity [5]: Non-Toxic
Activity [6]: Non-Toxic

CC(c1ccccc1)C1CC(=O)N(CN2CCN(c3ccccc3F)CC2)C1=O (centres undefined)
Activity [1]: inactive
Activity [2]: inactive
Activity [3]: inactive
Activity [4]: inactive
Activity [5]: Non-Toxic
Activity [6]: Non-Toxic

COc1cccc(N2CCN(CN3C(=O)CC(Cc4ccccc4)C3=O)CC2)c1 (centres undefined)
Activity [1]: inactive
Activity [2]: inactive
Activity [3]: inactive
Activity [4]: inactive
Activity [5]: Non-Toxic
Activity [6]: Non-Toxic

Cc1ccccc1N1CCN(CN2C(=O)CC(Cc3ccccc3)C2=O)CC1 (racemic)
Activity [1]: inactive
Activity [2]: inactive
Activity [3]: inactive
Activity [4]: inactive
Activity [5]: Non-Toxic
Activity [6]: Non-Toxic

CC(c1ccccc1)C1CC(=O)N(CN2CCN(c3ccccc3Cl)CC2)C1=O (centres undefined)
Activity [1]: inactive
Activity [2]: inactive
Activity [3]: inactive
Activity [4]: inactive
Activity [5]: Non-Toxic
Activity [6]: Non-Toxic

CC(c1ccccc1)C1CC(=O)N(CN2CCN(c3ccc(F)cc3)CC2)C1=O (centres undefined)
Activity [1]: inactive
Activity [2]: inactive
Activity [3]: inactive
Activity [4]: inactive
Activity [5]: Non-Toxic
Activity [6]: Non-Toxic

Cc1ccccc1N1CCN(CN2C(=O)CC(C(C)c3ccccc3)C2=O)CC1 (centres undefined)
Activity [1]: inactive
Activity [2]: inactive
Activity [3]: inactive
Activity [4]: inactive
Activity [5]: Non-Toxic
Activity [6]: Non-Toxic

CC(c1ccccc1)C1CC(=O)N(CN2CCN(Cc3ccccc3)CC2)C1=O (centres undefined)
Activity [1]: inactive
Activity [2]: inactive
Activity [3]: inactive
Activity [4]: inactive
Activity [5]: Non-Toxic
Activity [6]: Non-Toxic

CC(c1ccccc1)C1CC(=O)N(CN2CCN(c3cccc(Cl)c3Cl)CC2)C1=O (centres undefined)
Activity [1]: inactive
Activity [2]: inactive
Activity [3]: inactive
Activity [4]: inactive
Activity [5]: Non-Toxic
Activity [6]: Non-Toxic

O=C1CC(Cc2ccccc2)C(=O)N1CN1CCC(Cc2ccccc2)CC1 (centres undefined)
Activity [1]: inactive
Activity [2]: inactive
Activity [3]: inactive
Activity [4]: inactive
Activity [5]: Non-Toxic
Activity [6]: Non-Toxic

COc1cccc(N2CCN(CN3C(=O)CC(C(C)c4ccccc4)C3=O)CC2)c1 (centres undefined)
Activity [1]: inactive
Activity [2]: inactive
Activity [3]: inactive
Activity [4]: inactive
Activity [5]: Non-Toxic
Activity [6]: Non-Toxic
